Data: US20140315797A1, “Novel N-Terminally Modified Insulin Derivatives” (priority 2010, published 2014)
Starred links: 1 amine or outer side, 2 acyl side, 3 side chain; linkers in the order of their positions; H or OH if unused. Positions of bridges follow the written chain, without caps; N, C: chain ends. Groups on a side chain read outwards from the residue. Chains are numbered I, II in the order given. No end group written: not given here. *: point of attachment. Phe(Nα-CONH2) = NC(=O)N[C@@H](Cc1ccccc1)C(=O)*; C20 diacid = O=C(O)CCCCCCCCCCCCCCCCCCC(=O)*; C16 diacid = O=C(O)CCCCCCCCCCCCCCC(=O)*; NMe2Phe = CN(C)[C@@H](Cc1ccccc1)C(=O)*; γGlu = O=C(O)[C@H](CCC(=O)[*:2])N[*:1]; Hydantoyl = NC(=O)NCC(=O)*; AEEA = NCCOCCOCC(=O)O; Me2Gly = CN(C)CC(=O)*

How the values were obtained:
[1] = biological target: T1, human insulin receptor (IR-A) (Homo sapiens, UniProt P06213); experiment: Insulin receptor affinity, SPA antibody capture assay, 0% HSA; type: binding; conditions: relative to affinity of human insulin
Procedure: (§1) The affinity of the acylated insulin analogues of this invention for the human insulin receptor is determined by a SPA assay (Scintillation Proximity Assay) microtiterplate antibody capture assay. SPA-PVT antibody-binding beads, anti-mouse reagent (Amersham Biosciences, Cat No. PRNQ0017) are mixed with 25 ml of binding buffer (100 mM HEPES pH 7.8; 100 mM sodium chloride, 10 mM MgSO4, 0.025% Tween-20). Reagent mix for a single Packard Optiplate (Packard No. 6005190) is composed of 2.4 μl of a 1:5000 diluted purified recombinant human insulin receptor (either with or without exon 11), an amount of a stock solution of A14Tyr[^125I]-human insulin corresponding to 5000 cpm per 100 μl of reagent mix, 12 μl of a 1:1000 dilution of F12 antibody, 3 ml of SPA-beads and binding buffer to a total of 12 ml. A total of 100 μl reagent mix is then added to each well in the Packard Optiplate and a dilution series of the insulin derivative is made in the Optiplate from appropriate samples. The samples are then incubated for 16 hours while gently shaken. The phases are the then separated by centrifugation for 1 min and the plates counted in a Topcounter. The binding data were fitted using the nonlinear regression algorithm in the GraphPad Prism 2.01 (GraphPad Software, San Diego, Calif.) and affinities are expressed relative (in percentage (%)) to the affinity of human insulin.

[2] = biological target: T1, human insulin receptor (IR-A); conditions: relative to affinity of human insulin; […] HSA in binding buffer
Procedure: as §1
A related assay is also used wherein the binding buffer also contains 1.5% HSA in order to mimic physiological conditions

duodenum lumen enzymes = conditions: pH 7.4
Procedure: Degradation of insulin analogs using duodenum lumen enzymes (prepared by filtration of duodenum lumen content) from SPD rats. The assay is performed by a robot in a 96 well plate (2 ml) with 16 wells available for insulin analogs and standards. Insulin analogs ˜15 μM are incubated with duodenum enzymes in 100 mM Hepes, pH=7.4 at 37° C., samples are taken after 1, 15, 30, 60, 120 and 240 min and reaction quenched by addition of TFA. Intact insulin analogs at each point are determined by RP-HPLC. Degradation half time is determined by exponential fitting of the data and normalized to half time determined for the reference insulins, A14E, B25H, desB30 human insulin or human insulin in each assay. The amount of enzymes added for the degradation is such that the half time for degradation of the reference insulin is between 60 min and 180 min.

T1 sequence (P06213 28-746 isoform P06213-2 limits assumed): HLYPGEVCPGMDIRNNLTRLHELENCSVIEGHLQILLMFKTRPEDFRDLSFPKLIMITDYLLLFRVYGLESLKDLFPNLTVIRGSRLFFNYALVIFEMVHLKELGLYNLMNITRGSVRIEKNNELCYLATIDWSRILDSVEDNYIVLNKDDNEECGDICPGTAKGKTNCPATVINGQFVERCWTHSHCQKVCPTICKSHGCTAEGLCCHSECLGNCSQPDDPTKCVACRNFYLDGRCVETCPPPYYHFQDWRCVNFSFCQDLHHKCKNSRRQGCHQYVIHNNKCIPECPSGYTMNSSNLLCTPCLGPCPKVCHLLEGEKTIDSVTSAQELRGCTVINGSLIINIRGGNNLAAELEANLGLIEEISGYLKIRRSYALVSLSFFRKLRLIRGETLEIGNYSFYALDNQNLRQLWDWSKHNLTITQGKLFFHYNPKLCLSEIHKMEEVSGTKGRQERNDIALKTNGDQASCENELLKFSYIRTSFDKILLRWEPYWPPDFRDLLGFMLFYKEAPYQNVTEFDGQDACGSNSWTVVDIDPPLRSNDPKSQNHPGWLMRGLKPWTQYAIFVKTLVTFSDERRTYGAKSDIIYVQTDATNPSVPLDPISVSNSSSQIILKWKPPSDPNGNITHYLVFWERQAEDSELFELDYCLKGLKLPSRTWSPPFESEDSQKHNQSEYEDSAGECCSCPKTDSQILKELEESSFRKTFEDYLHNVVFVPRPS
T1 sequence (P06213 763-1382 partner limits assumed): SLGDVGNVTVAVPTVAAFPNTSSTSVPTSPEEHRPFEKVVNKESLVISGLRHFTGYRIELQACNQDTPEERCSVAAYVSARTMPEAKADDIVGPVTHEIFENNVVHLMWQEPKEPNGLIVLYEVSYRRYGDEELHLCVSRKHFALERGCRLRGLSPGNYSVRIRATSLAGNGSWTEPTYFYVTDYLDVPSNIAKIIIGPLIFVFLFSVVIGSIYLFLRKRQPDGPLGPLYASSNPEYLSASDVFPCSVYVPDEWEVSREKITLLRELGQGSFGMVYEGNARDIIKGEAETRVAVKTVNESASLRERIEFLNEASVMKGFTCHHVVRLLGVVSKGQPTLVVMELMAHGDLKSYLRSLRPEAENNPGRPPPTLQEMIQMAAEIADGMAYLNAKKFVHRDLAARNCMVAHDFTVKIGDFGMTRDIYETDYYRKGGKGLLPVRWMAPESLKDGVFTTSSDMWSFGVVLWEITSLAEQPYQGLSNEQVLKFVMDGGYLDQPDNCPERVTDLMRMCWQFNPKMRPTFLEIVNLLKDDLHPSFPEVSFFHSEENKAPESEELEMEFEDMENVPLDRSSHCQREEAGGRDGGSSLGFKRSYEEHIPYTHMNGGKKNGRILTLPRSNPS

Row | Substance | Relative IR-A affinity (@ 0% HSA) (%) [1] | Relative IR-A affinity (@ […] HSA) (%)e [2] | Duodenum degradation. Relative stability vs. A14E, B25H, desB30 human insulin (duodenum lumen enzymes)
1 | I: {Phe(Nα-CONH2)}-VNQHLCGSHLVEALYLVCGERGFFYPK([AEEA-AEEA-γGlu-C20 diacid]) / II: Hydantoyl-IVEQCCTSICSLEQLENYCN (disulfide I:6-II:6, I:18-II:19, II:5-II:10) [Example 29, A1G(N^αcarbamoyl), A14E, B1F(N^αcarbamoyl), desB27, B29K(N^εeicosanedioyl-gGlu-2xOEG), desB30 human insulin] | 2.6% | 0.20% | 3.0
2 | I: {Phe(Nα-CONH2)}-VNQHLCGSHLVEALYLVCGERGFFYPK([γGlu-C16 diacid]) / II: Hydantoyl-IVEQCCTSICSLEQLENYCN (disulfide I:6-II:6, I:18-II:19, II:5-II:10) [Example 19, A1G(N(alpha)carbamoyl), A14E, B1F(N(alpha)carbamoyl), desB27, B29K(N(eps)hexadecanedioyl-gGlu), desB30 human insulin] | 5.0% | 0.14% | 3.0
3 | I: NMe2Phe-VNQHLCGSHLVEALHLVCGERGFHYTPK([AEEA-AEEA-γGlu-C20 diacid]) / II: Me2Gly-IVEQCCTSICSLEQLENYCN (disulfide I:6-II:6, I:18-II:19, II:5-II:10) [Example 7, A1(N^α,N^α-Dimethyl), A14E, B1(NP,N^α-dimethyl), B16H, B25H, B29K(N^εeicosanedioyl-gGlu-2xOEG), desB30 human insulin] | 0.5% | 0.03% | 0.4
4 | I: {Phe(Nα-CONH2)}-VNQHLCGSHLVEALYLVCGERGFHYTPK([γGlu-C16 diacid]) / II: Hydantoyl-IVEQCCTSICSLEQLENYCN (disulfide I:6-II:6, I:18-II:19, II:5-II:10) [Example 13, A1(N^αCarbamoyl), A14E, B1(N^αCarbamoyl), B25H, B29K(N^εhexadecanedioyl-gGlu), desB30 human insulin] | 0.3% | 0.02% | 1.5
5 | I: {Phe(Nα-CONH2)}-VNQHLCGSHLVEALYLVCGERGFFYPK([AEEA-AEEA-γGlu-C16 diacid]) / II: Hydantoyl-IVEQCCTSICSLEQLENYCN (disulfide I:6-II:6, I:18-II:19, II:5-II:10) [Example 20] | 4.7% | 0.48% | 1.8
6 | I: {Phe(Nα-CONH2)}-VNQHLCGSHLVEALHLVCGERGFFYPK([AEEA-AEEA-γGlu-C20 diacid]) / II: Hydantoyl-IVEQCCTSICSLEQLENYCN (disulfide I:6-II:6, I:18-II:19, II:5-II:10) [Example 30, A1G(N^αcarbamoyl), A14E, B1F(N^αcarbamoyl), B16H, desB27, B29K(N^εeicosanedioyl-gGlu-2xOEG), desB30 human insulin] |  |  | 4.9
7 | I: {Phe(Nα-CONH2)}-VNQHLCGSHLVEALYLVCGERGFHYTPK([γGlu-C20 diacid]) / II: Hydantoyl-IVEQCCTSICSLEQLENYCN (disulfide I:6-II:6, I:18-II:19, II:5-II:10) [Example 14, A1(N^αCarbamoyl), A14E, B1(N^αCarbamoyl), B25H, B29K(Feicosanedioyl-gGlu), desB30 human insulin] | 0.2% | 0.00% | 0.9
